Experimental data published in US8008074B2, “Compositions and methods for improving bone mass through modulation of receptors of PTH and fragments thereof” (The UAB Research Foundation, priority 2006, dated 2011).

Tests used:
TGFβ/Smad signaling = TGFβ/Smad signaling after PTH pretreatment; type: cell-based
Procedure: Panel B is a graph showing the decrease in activity from the SBE-luciferase reporter in the presence of PTH and PTH1R.
It has been reported that TGFβ-induced endocytosis of TGFβ/TβRII is mediated by Sara endosome. The response of TβRII to PTH was analyzed to determine whether it is the same as to TGFβ. […] The observation was confirmed by TGFβ-induced interaction between Smad2 and Smad4.

MPK1, RANKL and OPG mRNA = test: Real-Time PCR of PTH target genes in bone tissue of injected rats; type: in vivo, rat; conditions: rats injected with PTH (PTH (1-34))
Text: Immunohistochemical staining of representative sections with antibody against β-catenin at 10× objective and 40× objective counterstained with hematoxylin from either primary spongliosa subjacent to the epiphyseal growth plates or Spongiosa subjacent to diaphyseal hematopoietic bone marrow of different time points after PTH single injection in rats. […] Each value is the mean±SEM of determinations in three independent slides of each animal and three animals of each group. Panels B and C show graphs of the expression of MPK1 mRNA and the ratio of RANKL/OPG as quantified by real-time PCR in cavaria tissue from the same animals. […] Panel D is a graph showing the numbers of β-catenin-positive osteoblasts as a percent of total osteoblasts per field that were determined. […]
It has been reported that intermittent PTH treatment targeted proliferating cells in the primary spongiosa of young rat distal femur metaphysis, resulting in an increased number of osteoblasts (Oniya, 1995, Bone). […] Quantitation of MPK1, RANKL, OPG, and GAPDH with specific primers was performed using a DNA Engine Opticon continuous fluorescence detection system (MJ Research, Logan, Utah) with SYBR Green I as the method of detection. […] Briefly, quantitative PCR was performed in a total reaction volume of 20 μl per […]. […]

LRP6 [1] = target: T1, LRP6 (Homo sapiens, UniProt O75581); test: LRP6 phosphorylation at the PPPSP motif (Western blot); type: cell-based; conditions: without added GSK3β; data not shown
T1 construct: The cell lysates were immunoprecipitated for endogenous LRP6; endogenous in cells; host or cells: UMR-106
T1 sequence (O75581 20-1613): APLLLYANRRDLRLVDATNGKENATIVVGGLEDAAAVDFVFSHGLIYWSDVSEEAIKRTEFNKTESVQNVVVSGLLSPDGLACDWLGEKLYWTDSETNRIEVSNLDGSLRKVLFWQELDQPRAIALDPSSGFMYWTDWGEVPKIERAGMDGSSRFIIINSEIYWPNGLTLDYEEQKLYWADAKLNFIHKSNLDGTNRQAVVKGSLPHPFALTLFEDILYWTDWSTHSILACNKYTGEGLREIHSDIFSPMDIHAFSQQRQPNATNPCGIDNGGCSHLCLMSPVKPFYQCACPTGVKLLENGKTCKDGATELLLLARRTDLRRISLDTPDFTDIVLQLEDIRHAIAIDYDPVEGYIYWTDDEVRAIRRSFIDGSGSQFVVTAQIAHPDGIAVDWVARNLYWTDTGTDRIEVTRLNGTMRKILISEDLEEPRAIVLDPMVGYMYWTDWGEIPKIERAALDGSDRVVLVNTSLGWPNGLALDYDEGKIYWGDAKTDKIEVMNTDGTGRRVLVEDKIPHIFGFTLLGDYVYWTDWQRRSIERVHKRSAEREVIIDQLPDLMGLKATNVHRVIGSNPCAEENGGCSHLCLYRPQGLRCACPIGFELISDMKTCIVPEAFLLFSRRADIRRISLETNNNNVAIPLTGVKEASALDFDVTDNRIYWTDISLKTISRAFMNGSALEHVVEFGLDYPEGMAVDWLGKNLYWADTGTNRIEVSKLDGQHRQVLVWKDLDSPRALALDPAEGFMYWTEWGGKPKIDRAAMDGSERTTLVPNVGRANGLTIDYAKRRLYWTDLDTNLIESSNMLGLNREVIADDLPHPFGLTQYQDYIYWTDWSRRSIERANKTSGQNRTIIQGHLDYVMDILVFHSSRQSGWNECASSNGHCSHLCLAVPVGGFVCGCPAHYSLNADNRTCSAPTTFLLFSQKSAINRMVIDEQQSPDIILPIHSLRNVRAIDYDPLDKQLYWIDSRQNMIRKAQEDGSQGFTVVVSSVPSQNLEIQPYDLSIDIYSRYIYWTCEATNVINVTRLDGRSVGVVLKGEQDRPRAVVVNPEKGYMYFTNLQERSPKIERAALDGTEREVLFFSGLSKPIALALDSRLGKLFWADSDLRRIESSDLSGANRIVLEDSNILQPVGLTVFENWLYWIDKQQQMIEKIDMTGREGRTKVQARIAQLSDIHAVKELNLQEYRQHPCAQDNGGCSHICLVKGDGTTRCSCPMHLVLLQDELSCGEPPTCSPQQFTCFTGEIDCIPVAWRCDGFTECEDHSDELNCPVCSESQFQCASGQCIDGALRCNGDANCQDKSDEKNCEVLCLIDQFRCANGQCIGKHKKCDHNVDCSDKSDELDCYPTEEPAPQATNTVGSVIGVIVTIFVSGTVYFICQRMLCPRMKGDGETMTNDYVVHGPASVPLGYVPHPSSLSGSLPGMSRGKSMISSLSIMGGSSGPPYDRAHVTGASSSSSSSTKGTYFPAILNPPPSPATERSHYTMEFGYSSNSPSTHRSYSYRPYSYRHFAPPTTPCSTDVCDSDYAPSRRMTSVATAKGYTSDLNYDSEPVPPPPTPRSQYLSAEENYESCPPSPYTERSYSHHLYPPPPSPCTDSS
Procedure: (§1) UMR-106 cells were treated with either PTH or Wnt-3a. The cell lysates were immunoprecipitated for endogenous LRP6, and the precipitated immunocomplexes were detected by Western blotting with an antibody that specifically recognizes the phosphorylated PPPSP motifs (aa, 1490) (Tamai et al., 2004). […] To further confirm the role of PTH in inducing phosphorylation of LRP5 and LRP6 individually, HEK293 cells were transfected with HA-tagged LRP5, and the phosphorylated LRP5 was detected by Western blotting of the anti-HA immunoprecipitates with Ab1490.
(§2) If the observation is true, then the phosphorylated PPPSP motif will serve as an Axin docking site.

LRP6 [2] = target: T2, LRP6 (Rattus norvegicus, UniProt A0A0G2K0H3); test: as above; type: cell-based; conditions: UMR-106 cells, endogenous LRP6; data not shown
T2 construct: The cell lysates were immunoprecipitated for endogenous LRP6; endogenous in cells; host or cells: UMR-106
T2 sequence (A0A0G2K0H3 20-1611): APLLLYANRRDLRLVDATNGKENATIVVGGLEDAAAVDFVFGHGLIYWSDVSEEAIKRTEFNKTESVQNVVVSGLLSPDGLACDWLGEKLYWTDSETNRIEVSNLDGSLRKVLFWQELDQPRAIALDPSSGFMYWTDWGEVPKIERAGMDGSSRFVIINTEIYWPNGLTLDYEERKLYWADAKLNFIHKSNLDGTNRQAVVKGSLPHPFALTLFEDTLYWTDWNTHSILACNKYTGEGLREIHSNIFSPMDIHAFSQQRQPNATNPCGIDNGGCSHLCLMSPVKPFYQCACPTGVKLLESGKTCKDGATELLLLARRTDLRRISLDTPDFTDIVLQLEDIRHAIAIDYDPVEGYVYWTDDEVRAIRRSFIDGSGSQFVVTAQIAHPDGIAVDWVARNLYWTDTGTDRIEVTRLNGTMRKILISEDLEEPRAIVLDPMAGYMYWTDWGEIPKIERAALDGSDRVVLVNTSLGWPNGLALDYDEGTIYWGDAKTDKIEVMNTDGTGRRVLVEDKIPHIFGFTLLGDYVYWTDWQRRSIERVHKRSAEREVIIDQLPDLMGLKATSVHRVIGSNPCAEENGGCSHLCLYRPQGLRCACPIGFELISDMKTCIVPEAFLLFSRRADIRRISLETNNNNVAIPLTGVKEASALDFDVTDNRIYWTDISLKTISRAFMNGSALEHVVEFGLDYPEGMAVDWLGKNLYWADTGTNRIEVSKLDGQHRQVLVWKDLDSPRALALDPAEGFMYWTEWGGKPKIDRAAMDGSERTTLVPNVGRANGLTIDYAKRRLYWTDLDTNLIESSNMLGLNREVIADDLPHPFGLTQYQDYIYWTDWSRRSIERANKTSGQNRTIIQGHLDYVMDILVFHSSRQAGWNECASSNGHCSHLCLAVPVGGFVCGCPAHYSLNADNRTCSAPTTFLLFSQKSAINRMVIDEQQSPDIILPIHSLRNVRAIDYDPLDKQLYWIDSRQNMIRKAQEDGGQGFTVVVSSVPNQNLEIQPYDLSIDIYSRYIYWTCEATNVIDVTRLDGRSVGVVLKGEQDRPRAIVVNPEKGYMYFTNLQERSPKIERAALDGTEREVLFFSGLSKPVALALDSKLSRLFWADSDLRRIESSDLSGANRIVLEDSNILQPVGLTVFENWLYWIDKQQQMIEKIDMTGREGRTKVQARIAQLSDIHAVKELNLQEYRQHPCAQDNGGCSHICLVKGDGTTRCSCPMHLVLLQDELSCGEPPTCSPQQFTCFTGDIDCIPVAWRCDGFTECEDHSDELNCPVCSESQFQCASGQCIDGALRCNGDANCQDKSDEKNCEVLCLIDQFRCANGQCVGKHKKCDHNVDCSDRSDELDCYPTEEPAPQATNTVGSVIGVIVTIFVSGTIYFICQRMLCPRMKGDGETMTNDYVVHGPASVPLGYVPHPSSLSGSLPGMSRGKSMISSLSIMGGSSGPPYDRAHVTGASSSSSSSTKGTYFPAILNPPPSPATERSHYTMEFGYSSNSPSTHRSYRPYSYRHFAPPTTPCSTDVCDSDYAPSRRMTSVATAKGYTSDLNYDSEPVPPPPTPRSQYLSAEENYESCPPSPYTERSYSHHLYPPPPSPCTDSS
Procedure: as §1, §2

LRP5 = target: T3, LRP5 (Homo sapiens, UniProt O75197); test: LRP5 PPPSP phosphorylation in HEK293 cells (Ab1490 Western blot); type: cell-based; conditions: HEK293 cells transfected with HA-tagged LRP5; at 45 minutes; 5×10^−7 M PTH (1-84)
T3 construct: expressed in transfected cells; host or cells: HEK293
T3 sequence (O75197 32-1615, species assumed): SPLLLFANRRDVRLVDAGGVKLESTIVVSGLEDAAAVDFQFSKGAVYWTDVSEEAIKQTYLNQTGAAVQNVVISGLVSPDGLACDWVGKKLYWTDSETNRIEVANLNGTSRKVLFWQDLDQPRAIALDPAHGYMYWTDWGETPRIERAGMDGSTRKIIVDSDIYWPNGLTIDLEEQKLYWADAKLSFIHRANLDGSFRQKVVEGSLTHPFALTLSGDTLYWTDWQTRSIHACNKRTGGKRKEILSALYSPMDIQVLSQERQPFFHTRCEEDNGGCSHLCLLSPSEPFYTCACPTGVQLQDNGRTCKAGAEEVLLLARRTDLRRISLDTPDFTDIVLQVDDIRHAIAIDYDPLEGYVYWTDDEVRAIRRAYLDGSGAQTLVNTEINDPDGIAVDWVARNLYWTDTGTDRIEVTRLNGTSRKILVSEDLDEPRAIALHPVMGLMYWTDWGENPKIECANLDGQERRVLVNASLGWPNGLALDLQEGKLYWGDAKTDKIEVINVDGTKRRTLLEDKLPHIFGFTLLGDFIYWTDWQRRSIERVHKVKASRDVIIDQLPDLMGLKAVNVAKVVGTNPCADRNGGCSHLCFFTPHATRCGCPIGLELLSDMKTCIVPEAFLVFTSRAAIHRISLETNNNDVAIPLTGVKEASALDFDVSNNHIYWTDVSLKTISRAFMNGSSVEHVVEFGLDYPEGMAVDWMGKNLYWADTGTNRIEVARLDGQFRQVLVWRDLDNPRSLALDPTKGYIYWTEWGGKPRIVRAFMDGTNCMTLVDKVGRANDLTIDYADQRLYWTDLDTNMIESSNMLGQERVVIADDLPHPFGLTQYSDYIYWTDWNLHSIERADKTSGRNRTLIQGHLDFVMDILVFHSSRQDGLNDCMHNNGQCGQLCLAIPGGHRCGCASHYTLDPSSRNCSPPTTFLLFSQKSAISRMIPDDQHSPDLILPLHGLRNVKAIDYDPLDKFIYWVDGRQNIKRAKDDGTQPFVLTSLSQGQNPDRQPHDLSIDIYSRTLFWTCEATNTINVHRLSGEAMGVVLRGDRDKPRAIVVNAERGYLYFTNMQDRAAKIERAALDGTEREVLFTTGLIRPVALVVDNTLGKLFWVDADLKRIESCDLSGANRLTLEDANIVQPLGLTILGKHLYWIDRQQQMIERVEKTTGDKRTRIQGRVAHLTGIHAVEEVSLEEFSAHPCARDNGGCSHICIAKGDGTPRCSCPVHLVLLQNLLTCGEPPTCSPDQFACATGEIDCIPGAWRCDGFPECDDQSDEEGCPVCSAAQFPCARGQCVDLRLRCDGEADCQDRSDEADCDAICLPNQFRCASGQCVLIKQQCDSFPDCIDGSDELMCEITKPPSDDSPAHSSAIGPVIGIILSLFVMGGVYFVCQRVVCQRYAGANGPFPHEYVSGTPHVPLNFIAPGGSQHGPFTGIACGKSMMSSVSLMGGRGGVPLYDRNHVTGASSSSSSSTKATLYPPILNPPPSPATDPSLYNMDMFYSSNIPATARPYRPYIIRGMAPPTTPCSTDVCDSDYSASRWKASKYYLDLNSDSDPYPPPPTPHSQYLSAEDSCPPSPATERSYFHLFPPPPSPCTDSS
Procedure: HEK293 cells transfected with HA-tagged LRP5 were treated with conditioned medium containing Wnt-3a (lane 1), control medium with 5×10^−7 M PTH (1-84) for the indicated time periods (lane 3-5), or without PTH treatment (lane 2). Phosphorylated LRP5 was detected by Western blotting of the anti-HA immunoprecipitates with Ab1490, which specifically recognizes phosphorylated PPPSP sites within LRP5/6. […] VSVG-tagged LRP6 was cotransfected into HEK 293 cells with HA-Axin and GSK3β, and the cells were treated with or without 10^−7 M PTH (1-84) for the indicated time periods. The LRP6-associated Axin was determined by Western blotting of the anti-VSVG immunoprecipitates with anti-HA antibody. […] The LRP6-associated Axin was determined by Western blotting of the anti-VSVG immunoprecipitates with anti-HA antibody. […] The association of axin with wild type and mutant proteins was determined by Western blotting of the anti-VSVG immunoprecipitates with anti-HA antibody. […] Then luciferase activities were determined.
UMR-106 cells were treated with either PTH or Wnt-3a. The cell lysates were immunoprecipitated for endogenous LRP6, and the precipitated immunocomplexes were detected by Western blotting with an antibody that specifically recognizes the phosphorylated PPPSP motifs (aa, 1490) (Tamai et al., 2004). […]

LRP6/Axin binding = test: Axin-LRP6 binding immunoprecipitation assay; type: cell-based; conditions: without added GSK3β; data not shown

Substance: PTH: Parathyroid hormone ligand, form not stated at the place; figure legends give PTH (1-84) or PTH (1-34)
- phosphorylation of Smad2 by TGFβ after PTH pretreatment (TGFβ/Smad signaling; C2C12 cells pretreated with PTH): largely inhibited
- inhibition by PTH1R of TGFβ activation of SBE luciferase reporter (TGFβ/Smad signaling; cells expressing PTH1R): enhanced the inhibition
- TGFβ-induced interaction between Smad2 and Smad4 (TGFβ/Smad signaling; pretreatment with PTH): inhibits the interaction
- MPK1 mRNA expression (MPK1, RANKL and OPG mRNA): stimulated MPK1 mRNA expression
- ratio of RANKL/OPG (MPK1, RANKL and OPG mRNA): increased
- phosphorylation of LRP6, PTH alone (LRP6 [1]): much weaker stimulation
- LRP6 phosphorylation at the PPPSP motif (LRP6 [2]): rapidly induced LRP6 phosphorylation at the PPPSP motif
- LRP5 phosphorylation (PPPSP) (LRP5): dramatically stimulated LRP5 phosphorylation
- Axin/LRP6 binding, PTH alone (LRP6/Axin binding): undetectable
